“And” between values parts separate entries of the source, which are not always exact repeats. Equal entries are not always repeated.
Experiment: solvent given as SMILES

COc1ccc(-c2pc3ccccc3s2)cc1 (centres undefined)
emission maximum (in CC#N): 445 nm

COc1cc(OC)cc(C2=C3C(C)=C(I)C(C)=[N+]3[B-](F)(F)n3c(/C=C/c4ccsc4)c(I)c(C)c32)c1
emission maximum (in C1CCOC1): 610 nm | emission maximum (in CS(C)=O): 621 nm | emission maximum (in ClCCl): 610 nm

N#Cc1cc(/C=C/c2ccc(N(c3ccccc3)c3ccccc3)cc2)ccc1/C=C/c1ccc(/C=C/c2ccc(N(c3ccccc3)c3ccccc3)cc2)cc1C#N
emission maximum (in ClCCl): 614 nm

COc1cccc2cc(C#N)c(=N)oc12
emission maximum (in ClCCl): 462 nm

CCN(C)c1ccc(C2=C3C(C)=CC(C)=[N+]3[B-](F)(F)n3c(C)cc(C)c32)cc1
emission maximum (in CO): 513 nm

Oc1ccc(-c2ccco2)cc1-c1nc2ccccc2s1
emission maximum (in CCO): 435 nm | emission maximum (in ClCCl): 406 nm | emission maximum (in O): 577 nm

CCCCCCCCC1(CCCCCCCC)c2cc(-c3ccc(C#N)cc3)ccc2-c2ccc(-c3ccc(C#N)cc3)cc21
emission maximum (in ClC(Cl)Cl): 385 nm

CC1(C)c2ccccc2N(c2ccc(-c3ncc(C#N)cn3)cc2)c2ccccc21
emission maximum (in Cc1ccccc1): 543 nm | emission maximum (in N#Cc1ccc2c(c1)c1ccccc1n2-c1cccc(-n2c3ccccc3c3ccccc32)c1): 541 nm

Cc1ccc(C2=C3C=c4c(oc5ccccc45)=[N+]3[B-](F)(F)n3c2cc2c4ccccc4oc23)cc1
emission maximum (in C1CCCCC1): 596.5 nm | emission maximum (in C1CCOC1): 596.5 nm | emission maximum (in CC#N): 595.5 nm | emission maximum (in CCOC(C)=O): 594.5 nm | emission maximum (in CN(C)C=O): 598.5 nm | emission maximum (in CO): 594.5 nm | emission maximum (in Cc1ccccc1): 603 nm | emission maximum (in ClCCl): 599 nm and 597 nm

O=C1c2cc(-c3ccccc3)ccc2-c2ccc(-c3ccccc3)cc21
emission maximum (in C1CCOC1): 360 nm

COc1cc2cc(C#Cc3ccc(/C=C(\C#N)C(=O)O)cc3)c(=O)oc2cc1OC
emission maximum (in CC#N): 464 nm

N#CC(C#N)=Cc1ccc(-c2ccc(-c3nc4ccccc4s3)c(O)c2)o1
emission maximum (in CCO): 501 nm | emission maximum (in ClCCl): 502 nm | emission maximum (in O): 596 nm

O=C1c2cc(-n3c4ccccc4c4ccccc43)ccc2S(=O)(=O)c2ccc(-n3c4ccccc4c4ccccc43)cc21
emission maximum (in C1CCOC1): 592 nm | emission maximum (in CCCCCC): 484 nm | emission maximum (in Cc1ccccc1): 546 nm | emission maximum (in ClC(Cl)Cl): 606 nm | emission maximum (in ClCCl): 614 nm

N#Cc1cc(-c2ccc(/C=C/c3ccc(N(c4ccccc4)c4ccccc4)cc3)c(C#N)c2)ccc1/C=C/c1ccc(N(c2ccccc2)c2ccccc2)cc1
emission maximum (in ClCCl): 541 nm

O=C([O-])c1ccccc1C1=c2cc3c4c(c2Oc2c1cc1c5c2CCCN5CCC1)CCC[N+]=4CCC3
emission maximum (in CC#N): 603 nm | emission maximum (in CCO): 593 nm | emission maximum (in CN(C)C=O): 608 nm | emission maximum (in O): 604 nm

CC1(C)C(/C=C/C=C/C=C/C=C2/N(CCCCCC(=O)O)c3ccc(S(=O)(=O)[O-])cc3C2(C)C)=[N+](CCCCS(=O)(=O)[O-])c2ccc(S(=O)(=O)[O-])cc21
emission maximum (in CO): 774 nm | emission maximum (in O): 771 nm

c1cc2ccc3[nH]c4ccc5cccc6c(c1)c2c3c4c56
emission maximum (in ClC(Cl)Cl): 436 nm

CC(C)(C)[Si](C)(C)C#Cc1c2c(=O)c3ccccc3c2c(C#C[Si](C)(C)C(C)(C)C)c2c(=O)c3ccccc3c12
emission maximum (in ClC(Cl)Cl): 571 nm

COC(=O)C(NC(=O)OC(C)(C)C)c1ccc2oc(-c3cccc(Oc4ccccc4)c3)nc2c1 (centres undefined)
emission maximum (in CC1CCCCC1): 325 nm | emission maximum (in CC#N): 360 nm | emission maximum (in CO): 348 nm

N#Cc1cccc(C#N)c1-n1c2ccccc2c2cc(-c3ccc4c(c3)c3ccccc3n4-c3c(C#N)cccc3C#N)ccc21
emission maximum (in Cc1ccccc1): 488 nm | emission maximum (in O=P(c1ccccc1)(c1ccccc1)c1ccccc1Oc1ccccc1P(=O)(c1ccccc1)c1ccccc1): 488 nm

CN1C(=CC=Cc2nc3nc4ccccc4nc3s2)C(C)(C)c2ccccc21
emission maximum (in CO): 623 nm

Cc1cc2c(cc1N1c3ccccc3C(C)(C)c3ccccc31)C(C)(C)c1cc(N3c4ccccc4C(C)(C)c4ccccc43)c(C)cc1S2(=O)=O
emission maximum (in Cc1ccccc1): 442.11 nm | emission maximum (in ClCCl): 495 nm

CCOC(=O)c1ccc(C2CC(c3cccc4ccccc34)=NN2c2ccc(C)cc2)cc1 (centres undefined)
emission maximum (in ClCCl): 493 nm

CNc1ccc2nc3cc(Cl)c(Cl)cc3nc2c1
emission maximum (in CCO): 599 nm

COc1ccc(/C=C/c2nc3ccccc3s2)cc1
emission maximum (in C1CCCCC1): 400 nm | emission maximum (in CO): 420 nm

C=Cc1cc2ccccc2oc1=O
emission maximum (in CC#N): 413 nm

CCCCCCCCCCCCOc1cc2c3cc(OCCCCCCCCCCCC)c(OCCCCCCCCCCCC)cc3c3c(cc(OCCCCCCCCCCCC)c4nc5cc(C#Cc6ccc(CCCCCCCCCC)cc6)c(C#Cc6ccc(CCCCCCCCCC)cc6)cc5nc43)c2cc1OCCCCCCCCCCCC
emission maximum (in ClC(Cl)Cl): 663 nm

O=C(O)CCCc1ccc2ccc3cccc4ccc1c2c34
emission maximum (in CO): 375 nm

CCCCCCCCOc1ccc2c3c(c4ccc(OCCCCCCCC)cc4c2c1)C(C)(C)c1ccccc1-3
emission maximum (in C1CCCCC1): 390 nm

Cc1ccc([N+]2=c3c4n(c5ccccc35)[B-](F)(F)[N+](c3ccc(C)cc3)=c3c=4n(c4ccccc34)[B-]2(F)F)cc1
emission maximum (in ClCCl): 808 nm

CC1CC=C(c2ccc(-c3cccs3)s2)CC1 (centres undefined)
emission maximum (in C1CCOC1): 412 nm | emission maximum (in CC#N): 404 nm | emission maximum (in CCCCCC): 408 nm | emission maximum (in CCO): 411 nm | emission maximum (in OCCOCCO): 414 nm | emission maximum (in c1ccncc1): 417 nm

c1ccc2c(c1)c1ccccc1c1ccccc21
emission maximum (in ClCCl): 355 nm
